Test results reported in patent US10670605B2, “Cysteine reactive probes and uses thereof” (The Scripps Research Institute, priority 2015, dated 2020).
Each block holds one compound with its values, some of them ahead of it.

Legend:
Test in all cases: Competitive isoTOP-ABPP, cell lysates;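 for isoTOP-ABPP reactivity profile ratio, P09211 C48: Heavy/light ratio DMSO over fragment-treated so higher means more cysteine engagement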;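 for isoTOP-ABPP reactivity profile ratio, Q15084 C190: Heavy/light ratio DMSO over fragment-treated so higher means more cysteine engagement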
Type in all cases: binding
GSTP1 C48 (P09211) = GSTP1 C48 (P09211) (Homo sapiens, UniProt P09211); details: for isoTOP-ABPP reactivity ratio, P09211_C48 / isoTOP-ABPP reactivity profile ratio, P09211_C48: 500 μm;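 for isoTOP-ABPP reactivity profile ratio, P09211 C48: Heavy/light ratio DMSO over fragment-treated so higher means more cysteine engagement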
GSTP1 C48 (P09211), sequence (P09211 whole entry, the tested form may be a part): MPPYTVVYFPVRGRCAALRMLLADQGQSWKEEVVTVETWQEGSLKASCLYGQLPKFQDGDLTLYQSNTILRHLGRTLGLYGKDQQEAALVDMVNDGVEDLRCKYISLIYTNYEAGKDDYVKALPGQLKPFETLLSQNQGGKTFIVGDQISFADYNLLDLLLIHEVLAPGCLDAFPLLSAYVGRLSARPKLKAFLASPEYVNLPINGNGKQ

IDH1 C269 (O75874) = IDH1 C269 (O75874) (Homo sapiens, UniProt O75874); details: for isoTOP-ABPP reactivity ratio, O75874_C269: 500 μm
IDH1 C269 (O75874), sequence (O75874 whole entry): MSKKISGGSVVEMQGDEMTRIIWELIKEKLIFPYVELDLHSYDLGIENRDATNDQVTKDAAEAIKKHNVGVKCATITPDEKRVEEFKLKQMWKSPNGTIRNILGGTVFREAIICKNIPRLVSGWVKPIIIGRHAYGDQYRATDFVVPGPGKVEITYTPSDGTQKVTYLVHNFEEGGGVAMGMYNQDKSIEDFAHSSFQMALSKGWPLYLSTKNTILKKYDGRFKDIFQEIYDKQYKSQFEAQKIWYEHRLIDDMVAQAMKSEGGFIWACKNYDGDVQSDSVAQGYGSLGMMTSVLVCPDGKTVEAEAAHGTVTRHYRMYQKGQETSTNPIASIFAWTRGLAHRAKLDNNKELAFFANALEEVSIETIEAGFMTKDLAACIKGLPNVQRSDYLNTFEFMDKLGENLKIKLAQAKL

IRF4 C194 (Q15306) = molecular target: T1, IRF4 C194 (Q15306) (Homo sapiens, UniProt Q15306)
T1 sequence (Q15306 1-451): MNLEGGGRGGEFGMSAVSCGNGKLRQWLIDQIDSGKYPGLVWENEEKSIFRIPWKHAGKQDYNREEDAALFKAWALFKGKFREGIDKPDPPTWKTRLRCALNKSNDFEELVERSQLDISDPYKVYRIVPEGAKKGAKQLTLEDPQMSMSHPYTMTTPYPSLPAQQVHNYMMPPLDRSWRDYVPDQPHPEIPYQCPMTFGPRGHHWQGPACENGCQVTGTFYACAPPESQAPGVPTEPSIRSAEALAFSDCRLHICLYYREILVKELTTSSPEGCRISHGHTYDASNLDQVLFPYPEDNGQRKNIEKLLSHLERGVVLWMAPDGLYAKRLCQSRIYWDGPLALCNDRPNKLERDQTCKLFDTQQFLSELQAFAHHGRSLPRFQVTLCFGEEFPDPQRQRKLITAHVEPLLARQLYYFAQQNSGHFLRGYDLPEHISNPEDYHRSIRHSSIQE

PDIA6 C190 (Q15084) = molecular target: T2, PDIA6 C190 (Q15084) (Homo sapiens, UniProt Q15084); details: for isoTOP-ABPP reactivity ratio, Q15084_C190 / isoTOP-ABPP reactivity profile ratio, Q15084_C190: 500 μm;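 for isoTOP-ABPP reactivity profile ratio, Q15084 C190: Heavy/light ratio DMSO over fragment-treated so higher means more cysteine engagement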
T2 sequence (Q15084 20-440): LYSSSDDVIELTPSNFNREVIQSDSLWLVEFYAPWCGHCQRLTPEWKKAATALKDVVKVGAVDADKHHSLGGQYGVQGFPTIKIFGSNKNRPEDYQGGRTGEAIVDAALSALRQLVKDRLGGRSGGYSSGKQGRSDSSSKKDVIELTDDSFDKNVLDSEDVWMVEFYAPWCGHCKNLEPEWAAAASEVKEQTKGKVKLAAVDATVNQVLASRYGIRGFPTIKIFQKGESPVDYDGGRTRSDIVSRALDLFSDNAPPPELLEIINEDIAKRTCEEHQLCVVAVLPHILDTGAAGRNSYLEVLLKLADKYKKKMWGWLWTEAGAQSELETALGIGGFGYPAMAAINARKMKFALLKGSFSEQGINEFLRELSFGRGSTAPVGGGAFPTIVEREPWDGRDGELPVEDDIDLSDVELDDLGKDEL

UCHL3 C95 (P15374) = molecular target: T3, UCHL3 C95 (P15374) (Homo sapiens, UniProt P15374)
T3 sequence (P15374 1-230): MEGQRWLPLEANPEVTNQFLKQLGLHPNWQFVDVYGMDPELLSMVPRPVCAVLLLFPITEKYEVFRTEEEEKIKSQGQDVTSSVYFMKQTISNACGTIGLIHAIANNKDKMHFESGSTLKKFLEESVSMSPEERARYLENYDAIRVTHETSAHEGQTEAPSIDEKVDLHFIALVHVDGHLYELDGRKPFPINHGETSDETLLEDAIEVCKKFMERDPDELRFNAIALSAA

XPO1 C34 (O14980) = XPO1 C34 (O14980) (Homo sapiens, UniProt O14980); details: for isoTOP-ABPP reactivity ratio, O14980_C34 / isoTOP-ABPP reactivity profile ratio, O14980_C34: 500 μm
XPO1 C34 (O14980), sequence (O14980 whole entry): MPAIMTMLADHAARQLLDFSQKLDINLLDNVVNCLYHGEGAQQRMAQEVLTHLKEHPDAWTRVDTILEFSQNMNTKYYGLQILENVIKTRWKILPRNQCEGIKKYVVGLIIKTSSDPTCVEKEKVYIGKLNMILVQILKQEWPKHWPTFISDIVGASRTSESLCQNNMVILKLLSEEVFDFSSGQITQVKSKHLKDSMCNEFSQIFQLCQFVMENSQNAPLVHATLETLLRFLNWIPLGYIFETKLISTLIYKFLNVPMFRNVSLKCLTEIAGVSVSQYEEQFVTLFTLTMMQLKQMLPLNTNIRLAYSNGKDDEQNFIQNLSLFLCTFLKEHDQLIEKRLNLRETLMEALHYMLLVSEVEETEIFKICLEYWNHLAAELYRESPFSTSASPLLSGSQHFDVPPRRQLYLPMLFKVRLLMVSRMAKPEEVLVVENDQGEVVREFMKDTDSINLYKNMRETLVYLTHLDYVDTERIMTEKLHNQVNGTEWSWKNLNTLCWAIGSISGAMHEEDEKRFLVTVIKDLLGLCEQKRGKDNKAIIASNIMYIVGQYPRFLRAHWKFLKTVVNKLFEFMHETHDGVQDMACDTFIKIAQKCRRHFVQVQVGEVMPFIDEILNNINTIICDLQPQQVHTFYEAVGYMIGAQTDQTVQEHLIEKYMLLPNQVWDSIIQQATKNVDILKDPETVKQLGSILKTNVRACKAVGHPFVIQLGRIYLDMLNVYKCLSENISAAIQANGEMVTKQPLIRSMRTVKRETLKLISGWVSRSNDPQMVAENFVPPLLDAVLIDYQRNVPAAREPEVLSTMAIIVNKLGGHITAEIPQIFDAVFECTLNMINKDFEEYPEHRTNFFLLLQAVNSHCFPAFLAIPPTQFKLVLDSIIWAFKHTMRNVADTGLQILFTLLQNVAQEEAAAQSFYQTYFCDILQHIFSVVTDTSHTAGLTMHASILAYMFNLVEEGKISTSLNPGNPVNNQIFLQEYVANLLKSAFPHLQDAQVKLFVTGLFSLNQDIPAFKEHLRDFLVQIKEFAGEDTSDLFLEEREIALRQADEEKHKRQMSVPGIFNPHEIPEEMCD

ZNF217 C286 (O75362) = ZNF217 C286 (O75362) (Homo sapiens, UniProt O75362)
ZNF217 C286 (O75362), sequence (O75362 whole entry): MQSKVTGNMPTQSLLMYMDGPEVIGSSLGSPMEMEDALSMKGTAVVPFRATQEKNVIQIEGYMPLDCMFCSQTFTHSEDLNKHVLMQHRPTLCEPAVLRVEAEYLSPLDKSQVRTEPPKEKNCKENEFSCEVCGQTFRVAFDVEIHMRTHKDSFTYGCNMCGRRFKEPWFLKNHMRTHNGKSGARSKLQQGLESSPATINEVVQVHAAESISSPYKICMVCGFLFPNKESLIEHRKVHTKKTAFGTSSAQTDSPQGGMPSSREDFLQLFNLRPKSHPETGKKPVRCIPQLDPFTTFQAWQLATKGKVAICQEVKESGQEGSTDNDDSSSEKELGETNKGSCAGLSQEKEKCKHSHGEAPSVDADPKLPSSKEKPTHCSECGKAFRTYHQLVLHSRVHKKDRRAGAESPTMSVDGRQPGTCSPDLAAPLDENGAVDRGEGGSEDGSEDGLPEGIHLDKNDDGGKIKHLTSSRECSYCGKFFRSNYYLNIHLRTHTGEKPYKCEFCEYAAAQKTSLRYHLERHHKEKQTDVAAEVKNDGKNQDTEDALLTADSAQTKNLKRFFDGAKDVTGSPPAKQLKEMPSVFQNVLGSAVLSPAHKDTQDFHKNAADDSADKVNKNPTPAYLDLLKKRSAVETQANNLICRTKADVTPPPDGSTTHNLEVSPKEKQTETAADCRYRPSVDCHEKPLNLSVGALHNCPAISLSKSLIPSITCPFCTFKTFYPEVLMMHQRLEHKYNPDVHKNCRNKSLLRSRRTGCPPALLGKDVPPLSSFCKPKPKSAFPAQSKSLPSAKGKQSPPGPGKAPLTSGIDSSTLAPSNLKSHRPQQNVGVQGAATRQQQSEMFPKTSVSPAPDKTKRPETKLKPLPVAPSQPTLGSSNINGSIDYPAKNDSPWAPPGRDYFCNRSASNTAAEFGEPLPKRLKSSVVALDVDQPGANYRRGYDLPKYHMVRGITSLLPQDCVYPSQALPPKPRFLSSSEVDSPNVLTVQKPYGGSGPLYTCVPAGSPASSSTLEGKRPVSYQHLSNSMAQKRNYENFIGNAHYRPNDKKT

UBE2S C118 (Q16763) = molecular target: T4, UBE2S C118 (Q16763) (Homo sapiens, UniProt Q16763); details: 500 μm
T4 sequence (Q16763 1-222): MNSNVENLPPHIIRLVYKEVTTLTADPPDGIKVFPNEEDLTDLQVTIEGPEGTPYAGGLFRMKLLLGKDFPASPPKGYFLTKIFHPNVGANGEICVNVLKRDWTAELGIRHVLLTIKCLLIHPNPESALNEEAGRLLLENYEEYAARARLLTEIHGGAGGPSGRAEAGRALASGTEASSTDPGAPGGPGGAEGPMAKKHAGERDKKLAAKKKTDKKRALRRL

- isoTOP-ABPP ratio (reactivity profile), P09211_C48 (GSTP1 C48 (P09211); 500 μm in-vitro ramos): 0.4
- isoTOP-ABPP ratio (reactivity profile), P09211_C48 (GSTP1 C48 (P09211); 500 μm in-vitro ramos_231): 1.0
- isoTOP-ABPP ratio (reactivity profile), O75874_C269 (IDH1 C269 (O75874); 500 μm in-vitro ramos_231): 0.8
- isoTOP-ABPP ratio (reactivity profile), Q15306_C194 (IRF4 C194 (Q15306); 500 μm in-vitro ramos): 1.2
- isoTOP-ABPP ratio (reactivity profile), Q15084_C190 (PDIA6 C190 (Q15084); 500 μm in-vitro ramos_231): 1.2
- isoTOP-ABPP ratio (reactivity profile), P15374_C95 (UCHL3 C95 (P15374); 500 μm in-vitro ramos): 1.0
- isoTOP-ABPP ratio (reactivity profile), P15374_C95 (UCHL3 C95 (P15374); 500 μm in-vitro ramos_231): 0.9
- isoTOP-ABPP ratio (reactivity profile), O14980_C34 (XPO1 C34 (O14980); 500 μm in-vitro ramos): 0.9
- isoTOP-ABPP ratio (reactivity profile), O14980_C34 (XPO1 C34 (O14980); 500 μm in-vitro ramos_231): 1.3
- isoTOP-ABPP ratio (reactivity profile), O75362_C286 (ZNF217 C286 (O75362); 500 μm in-vitro ramos_231): 0.9
Compound: O=C(CCl)N1CCN(CC(=O)N2CCOCC2)CC1 [compound 29]

- isoTOP-ABPP reactivity ratio, P09211_C48 (GSTP1 C48 (P09211); in-vitro_ramos): 1.3
- isoTOP-ABPP reactivity ratio, P09211_C48 (GSTP1 C48 (P09211); in-vitro_ramos_231): 2.0
- isoTOP-ABPP reactivity ratio, O75874_C269 (IDH1 C269 (O75874); in-vitro_ramos): 0.7
- isoTOP-ABPP reactivity ratio, O75874_C269 (IDH1 C269 (O75874); in-vitro_ramos_231): 0.4
- isoTOP-ABPP reactivity ratio, Q15306_C194 (IRF4 C194 (Q15306); 500 μm, in-vitro_ramos): 1.1
- isoTOP-ABPP reactivity ratio, Q15084_C190 (PDIA6 C190 (Q15084); in-vitro_ramos): 1.2
- isoTOP-ABPP reactivity ratio, Q15084_C190 (PDIA6 C190 (Q15084); in-vitro_ramos_231): 1.3
- isoTOP-ABPP reactivity ratio, Q16763_C118 (UBE2S C118 (Q16763); in-vitro_ramos): 0.8
- isoTOP-ABPP reactivity ratio, Q16763_C118 (UBE2S C118 (Q16763); in-vitro_ramos_231): 0.9
- isoTOP-ABPP reactivity ratio, P15374_C95 (UCHL3 C95 (P15374); 500 μm, in-vitro_ramos): 0.7
- isoTOP-ABPP reactivity ratio, P15374_C95 (UCHL3 C95 (P15374); 500 μm, in-vitro_ramos_231): 0.9
- isoTOP-ABPP reactivity ratio, O14980_C34 (XPO1 C34 (O14980); in-vitro_ramos): 0.8
- isoTOP-ABPP reactivity ratio, O14980_C34 (XPO1 C34 (O14980); in-vitro_ramos_231): 1.0
Compound: C=CC(=O)N(Cc1cccnc1)c1cc(C(F)(F)F)cc(C(F)(F)F)c1 [compound 31]

- isoTOP-ABPP reactivity ratio, P09211_C48 (GSTP1 C48 (P09211); in-vitro_ramos): 1.6
- isoTOP-ABPP reactivity ratio, P09211_C48 (GSTP1 C48 (P09211); in-vitro_ramos_231): 1.6
- isoTOP-ABPP reactivity ratio, O75874_C269 (IDH1 C269 (O75874); in-vitro_ramos): 0.8
- isoTOP-ABPP reactivity ratio, Q15306_C194 (IRF4 C194 (Q15306); 500 μm, in-vitro_ramos): 1.1
- isoTOP-ABPP reactivity ratio, Q15084_C190 (PDIA6 C190 (Q15084); in-vitro_ramos): 1.7
- isoTOP-ABPP reactivity ratio, Q15084_C190 (PDIA6 C190 (Q15084); in-vitro_ramos_231): 0.9
- isoTOP-ABPP reactivity ratio, Q16763_C118 (UBE2S C118 (Q16763); in-vitro_ramos): 0.8
- isoTOP-ABPP reactivity ratio, Q16763_C118 (UBE2S C118 (Q16763); in-vitro_ramos_231): 0.9
- isoTOP-ABPP reactivity ratio, P15374_C95 (UCHL3 C95 (P15374); 500 μm, in-vitro_ramos): 0.9
- isoTOP-ABPP reactivity ratio, O14980_C34 (XPO1 C34 (O14980); in-vitro_ramos): 1.1
- isoTOP-ABPP reactivity ratio, O14980_C34 (XPO1 C34 (O14980); in-vitro_ramos_231): 0.8
Compound: C=CC(=O)Nc1cc(C)c(Br)cc1C [compound 40]

- isoTOP-ABPP reactivity profile ratio, P09211_C48 (GSTP1 C48 (P09211); in-vitro_ramos): 1.2
- isoTOP-ABPP reactivity profile ratio, P09211_C48 (GSTP1 C48 (P09211); in-vitro_ramos_231): 2.3
- isoTOP-ABPP reactivity profile ratio, Q15306_C194 (IRF4 C194 (Q15306); 500 μm, in-vitro_ramos): 1.0
- isoTOP-ABPP reactivity profile ratio, Q15084_C190 (PDIA6 C190 (Q15084); in-vitro_ramos): 1.0
- isoTOP-ABPP reactivity profile ratio, Q15084_C190 (PDIA6 C190 (Q15084); in-vitro_ramos_231): 1.0
- isoTOP-ABPP reactivity profile ratio, Q16763_C118 (UBE2S C118 (Q16763); in-vitro_ramos): 0.8
- isoTOP-ABPP reactivity profile ratio, Q16763_C118 (UBE2S C118 (Q16763); in-vitro_ramos_231): 1.0
- isoTOP-ABPP reactivity profile ratio, P15374_C95 (UCHL3 C95 (P15374); 500 μm, in-vitro_ramos): 0.7
- isoTOP-ABPP reactivity profile ratio, O14980_C34 (XPO1 C34 (O14980); in-vitro_ramos): 1.0
- isoTOP-ABPP reactivity profile ratio, O14980_C34 (XPO1 C34 (O14980); in-vitro_ramos_231): 0.9
- isoTOP-ABPP reactivity profile ratio, O75362_C286 (ZNF217 C286 (O75362); 500 μm, in-vitro_ramos_231): 1.1
Compound: C=CC(=O)N1CCC(Cc2ccccc2)CC1 [compound 53]
